Experimental data: US20200231638A1, “STABILIZED ANTI-MICROBIAL PEPTIDES” (priority 2015, published 2020)
Bridge positions count the residues as written; N and C are the ends. Square brackets hold non-standard residues; d marks the D form. Peptide text beside a SMILES is read from it. S5 = C=CCCC[C@](C)(N)C(=O)O; Nle = CCCC[C@H](N)C(=O)O

Columns and labels:
S. aureus = type: cell-based, Staphylococcus aureus
Procedure, shortened: (§1)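 Broth microdilution in anion-exchange-refined Mueller-Hinton broth; serially diluted peptide mixed with bacteria at 5×10^5 CFU/ml final inoculum. Incubated 20-24 hours at 37° C. MIC taken as lowest peptide concentration with no visible growth.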

P. aeruginosa = type: cell-based, Pseudomonas aeruginosa
Procedure, shortened: as §1

B. cereus = type: cell-based, Bacillus cereus
Procedure, shortened: as §1

E. coli = type: cell-based, Escherichia coli
Procedure, shortened: as §1

human red blood cells = type: cell-based; details: red cells of human, 1 h, 25
Procedure, shortened: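 Washed human RBCs as 1% (v/v) suspension in phosphate-buffered saline incubated 1 h at 37° C with serially diluted peptides. Hemoglobin release in supernatant measured spectrophotometrically (570 nm), % hemolysis relative to untreated and 1% Triton-X100 controls; MHC defined as concentration giving less than 1% release.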

| SMILES | MIC S. aureus (S. aureus) [µg/mL] | MIC P. aeruginosa (P. aeruginosa) [µg/mL] | MIC B. cereus (B. cereus) [µg/mL] | MIC E. coli (E. coli) [µg/mL] | % Hemolysis at 25 μg/ml (human red blood cells) [%] |
| --- | --- | --- | --- | --- | --- |
| CCCC[C@H](NC(=O)[C@]1(C)CCCC=CCCC[C@](C)(NC(=O)[C@H](CCCCN)NC(=O)[C@H](CCCCN)NC(=O)CNC(=O)[C@H](Cc2ccccc2)NC(=O)[C@H](CCCCN)NC(=O)[C@H](CCCCN)NC(=O)[C@H](C)NC(=O)[C@H](CO)NC(=O)[C@H](Cc2c[nH]cn2)NC(=O)[C@H](CC(C)C)NC(=O)[C@H](Cc2ccccc2)NC(=O)[C@H](CCCCN)NC(=O)CNC(=O)[C@@H](NC(=O)CN)[C@@H](C)CC)C(=O)N[C@@H](C(C)C)C(=O)NCC(=O)N[C@@H](CCC(=O)O)C(=O)N1)C(=O)N[C@@H](CC(N)=O)C(=O)N[C@@H](CO)C(N)=O [Mag(i + 4)15(A15K), GIGKFLHSAKKFGKKXVGEXBNS] (H-GIGKFLHSAKKFGKK[S5]VGE[S5][Nle]NS-NH2; staple 16-20) | 25 | 3.1 | 6.2 | 3.1 | 4.1 |
| CC[C@H](C)[C@H](NC(=O)CN)C(=O)NCC(=O)N[C@@H](CCCCN)C(=O)N[C@@H](Cc1ccccc1)C(=O)N[C@@H](CC(C)C)C(=O)N[C@@H](Cc1c[nH]cn1)C(=O)N[C@@H](CO)C(=O)N[C@@H](C)C(=O)N[C@@H](CCCCN)C(=O)N[C@@H](CCCCN)C(=O)N[C@@H](Cc1ccccc1)C(=O)NCC(=O)N[C@@H](CCCCN)C(=O)N[C@@H](C)C(=O)N[C@@]1(C)CCCC=CCCC[C@@](C)(C(=O)N[C@@H](CCC(=O)O)C(=O)N[C@@H](CC(N)=O)C(=O)N[C@@H](CO)C(N)=O)NC(=O)[C@H](CCC(=O)O)NC(=O)CNC(=O)[C@H](C(C)C)NC1=O [Mag(i + 4)15(B21E), GIGKFLHSAKKFGKAXVGEXENS] (H-GIGKFLHSAKKFGKA[S5]VGE[S5]ENS-NH2; staple 16-20) | >50 | >50 | >50 | 25 | 0.8 |
| CC[C@H](C)[C@H](NC(=O)CN)C(=O)NCC(=O)N[C@@H](CCCCN)C(=O)N[C@@H](Cc1ccccc1)C(=O)N[C@@H](CC(C)C)C(=O)N[C@@H](Cc1c[nH]cn1)C(=O)N[C@@H](CO)C(=O)N[C@@H](C)C(=O)N[C@@H](CCCCN)C(=O)N[C@@H](CCCCN)C(=O)N[C@@H](Cc1ccccc1)C(=O)NCC(=O)N[C@@H](CCCCN)C(=O)N[C@@H](C)C(=O)N[C@@]1(C)CCCC=CCCC[C@@](C)(C(=O)N[C@@H](CCCCN)C(=O)N[C@@H](CC(N)=O)C(=O)N[C@@H](CO)C(N)=O)NC(=O)[C@H](CCC(=O)O)NC(=O)CNC(=O)[C@H](C(C)C)NC1=O [Mag(i + 4)15(B21K), GIGKFLHSAKKFGKAXVGEXKNS] (H-GIGKFLHSAKKFGKA[S5]VGE[S5]KNS-NH2; staple 16-20) | >50 | 6.2 | 25 | 1.6 | 3.7 |
| CCCC[C@H](NC(=O)[C@]1(C)CCCC=CCCC[C@](C)(NC(=O)[C@H](C)NC(=O)[C@H](CCC(=O)O)NC(=O)CNC(=O)[C@H](Cc2ccccc2)NC(=O)[C@H](CCCCN)NC(=O)[C@H](CCCCN)NC(=O)[C@H](C)NC(=O)[C@H](CO)NC(=O)[C@H](Cc2c[nH]cn2)NC(=O)[C@H](CC(C)C)NC(=O)[C@H](Cc2ccccc2)NC(=O)[C@H](CCCCN)NC(=O)CNC(=O)[C@@H](NC(=O)CN)[C@@H](C)CC)C(=O)N[C@@H](C(C)C)C(=O)NCC(=O)N[C@@H](CCC(=O)O)C(=O)N1)C(=O)N[C@@H](CC(N)=O)C(=O)N[C@@H](CO)C(N)=O [Mag(i + 4)15(E14E), GIGKFLHSAKKFGEAXVGEXBNS] (H-GIGKFLHSAKKFGEA[S5]VGE[S5][Nle]NS-NH2; staple 16-20) | >50 | >50 | 50 | 12.5 | 3.3 |
| CCCC[C@H](NC(=O)[C@]1(C)CCCC=CCCC[C@](C)(NC(=O)[C@H](C)NC(=O)[C@H](CCCCN)NC(=O)CNC(=O)[C@H](Cc2ccccc2)NC(=O)[C@H](CCCCN)NC(=O)[C@H](CCCCN)NC(=O)[C@H](C)NC(=O)[C@H](CO)NC(=O)[C@H](Cc2c[nH]cn2)NC(=O)[C@H](CC(C)C)NC(=O)[C@H](Cc2ccccc2)NC(=O)[C@H](CCCCN)NC(=O)CNC(=O)[C@@H](NC(=O)CN)[C@@H](C)CC)C(=O)N[C@@H](C(C)C)C(=O)NCC(=O)N[C@@H](CCCCN)C(=O)N1)C(=O)N[C@@H](CC(N)=O)C(=O)N[C@@H](CO)C(N)=O [Mag(i + 4)15(E19K), GIGKFLHSAKKFGKAXVGKXBNS] (H-GIGKFLHSAKKFGKA[S5]VGK[S5][Nle]NS-NH2; staple 16-20) | 12.5 | 3.1 | 6.2 | 1.6 | 7.1 |
| CCCC[C@H](NC(=O)[C@]1(C)CCCC=CCCC[C@](C)(NC(=O)[C@H](C)NC(=O)[C@H](CCCCN)NC(=O)CNC(=O)[C@H](Cc2ccccc2)NC(=O)[C@H](CCCCN)NC(=O)[C@H](CCCCN)NC(=O)[C@H](C)NC(=O)[C@H](CO)NC(=O)[C@H](Cc2c[nH]cn2)NC(=O)[C@H](CC(C)C)NC(=O)[C@H](CCCCN)NC(=O)[C@H](CCCCN)NC(=O)CNC(=O)[C@@H](NC(=O)CN)[C@@H](C)CC)C(=O)N[C@@H](C(C)C)C(=O)NCC(=O)N[C@@H](CCC(=O)O)C(=O)N1)C(=O)N[C@@H](CC(N)=O)C(=O)N[C@@H](CO)C(N)=O [Mag(i + 4)15(F5K), GIGKKLHSAKKFGRAXVGEXBNS] (H-GIGKKLHSAKKFGKA[S5]VGE[S5][Nle]NS-NH2; staple 16-20; N-terminus and C-terminus assumed) | >50 | 12.5 | >50 | 3.1 | 1.7 |

Further lines, with some results ahead:

| MIC S. aureus (S. aureus) [µg/mL] | MIC P. aeruginosa (P. aeruginosa) [µg/mL] | MIC B. cereus (B. cereus) [µg/mL] | MIC E. coli (E. coli) [µg/mL] | SMILES | % Hemolysis at 25 μg/ml (human red blood cells) [%] |
| --- | --- | --- | --- | --- | --- |
| >50 | >50 | >50 | 50 | CCCC[C@H](NC(=O)[C@]1(C)CCCC=CCCC[C@](C)(NC(=O)[C@H](C)NC(=O)[C@H](CCCCN)NC(=O)CNC(=O)[C@H](CCC(=O)O)NC(=O)[C@H](CCCCN)NC(=O)[C@H](CCCCN)NC(=O)[C@H](C)NC(=O)[C@H](CO)NC(=O)[C@H](Cc2c[nH]cn2)NC(=O)[C@H](CC(C)C)NC(=O)[C@H](Cc2ccccc2)NC(=O)[C@H](CCCCN)NC(=O)CNC(=O)[C@@H](NC(=O)CN)[C@@H](C)CC)C(=O)N[C@@H](C(C)C)C(=O)NCC(=O)N[C@@H](CCC(=O)O)C(=O)N1)C(=O)N[C@@H](CC(N)=O)C(=O)N[C@@H](CO)C(N)=O [Mag(i + 4)15(F12E), GIGKFLHSAKKEGKAXVGEXBNS] (H-GIGKFLHSAKKEGKA[S5]VGE[S5][Nle]NS-NH2; staple 16-20) | 0.6 |
| >50 | 12.5 | >50 | 3.1 | CCCC[C@H](NC(=O)[C@]1(C)CCCC=CCCC[C@](C)(NC(=O)[C@H](C)NC(=O)[C@H](CCCCN)NC(=O)CNC(=O)[C@H](CCCCN)NC(=O)[C@H](CCCCN)NC(=O)[C@H](CCCCN)NC(=O)[C@H](C)NC(=O)[C@H](CO)NC(=O)[C@H](Cc2c[nH]cn2)NC(=O)[C@H](CC(C)C)NC(=O)[C@H](Cc2ccccc2)NC(=O)[C@H](CCCCN)NC(=O)CNC(=O)[C@@H](NC(=O)CN)[C@@H](C)CC)C(=O)N[C@@H](C(C)C)C(=O)NCC(=O)N[C@@H](CCC(=O)O)C(=O)N1)C(=O)N[C@@H](CC(N)=O)C(=O)N[C@@H](CO)C(N)=O [Mag(i + 4)15(F12K), GIGKFLHSAKKKGKAXVGEXBNS] (H-GIGKFLHSAKKKGKA[S5]VGE[S5][Nle]NS-NH2; staple 16-20) | 2.0 |
| >50 | 50 | >50 | 12.5 | CCCC[C@H](NC(=O)[C@]1(C)CCCC=CCCC[C@](C)(NC(=O)[C@H](C)NC(=O)[C@H](CCCCN)NC(=O)CNC(=O)[C@H](Cc2ccccc2)NC(=O)[C@H](CCCCN)NC(=O)[C@H](CCCCN)NC(=O)[C@H](C)NC(=O)[C@H](CO)NC(=O)[C@H](Cc2c[nH]cn2)NC(=O)[C@H](CC(C)C)NC(=O)[C@H](Cc2ccccc2)NC(=O)[C@H](CCCCN)NC(=O)CNC(=O)[C@@H](NC(=O)[C@@H](N)CCC(=O)O)[C@@H](C)CC)C(=O)N[C@@H](C(C)C)C(=O)NCC(=O)N[C@@H](CCC(=O)O)C(=O)N1)C(=O)N[C@@H](CC(N)=O)C(=O)N[C@@H](CO)C(N)=O [Mag(i + 4)15(G1E), EIGKFLHSAKKFGKAXVGEXBNS] (H-EIGKFLHSAKKFGKA[S5]VGE[S5][Nle]NS-NH2; staple 16-20) | 4.1 |
| 25 | 3.1 | 12.5 | 1.6 | CCCC[C@H](NC(=O)[C@]1(C)CCCC=CCCC[C@](C)(NC(=O)[C@H](C)NC(=O)[C@H](CCCCN)NC(=O)CNC(=O)[C@H](Cc2ccccc2)NC(=O)[C@H](CCCCN)NC(=O)[C@H](CCCCN)NC(=O)[C@H](C)NC(=O)[C@H](CO)NC(=O)[C@H](Cc2c[nH]cn2)NC(=O)[C@H](CC(C)C)NC(=O)[C@H](Cc2ccccc2)NC(=O)[C@H](CCCCN)NC(=O)CNC(=O)[C@@H](NC(=O)[C@@H](N)CCCCN)[C@@H](C)CC)C(=O)N[C@@H](C(C)C)C(=O)NCC(=O)N[C@@H](CCC(=O)O)C(=O)N1)C(=O)N[C@@H](CC(N)=O)C(=O)N[C@@H](CO)C(N)=O [Mag(i + 4)15(G1K), KIGKFLHSAKKFGKAXVGEXBNS] (H-KIGKFLHSAKKFGKA[S5]VGE[S5][Nle]NS-NH2; staple 16-20) | 4.5 |
